ChEMBL document CHEMBL1201862, “PubChem BioAssay data set” (2004)
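Exposure lasted 48 hours, with cells grown in 96-well plates and compounds tested at five concentrations. Abbreviation: GI50, concentration required for 50% inhibition of growth.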 Calls of active or inactive are those of the source. Rule as the data show it: active = GI50 up to about 1.1 µM and inactive = higher.

Key:
Test in all cases: NCI-60 cell line screen, 48 h
[1] = tested on: 786-0
[2] = tested on: A498
[3] = tested on: A549
[4] = tested on: ACHN
[5] = tested on: BT-549
[6] = tested on: CAKI-1
[7] = tested on: CCRF-CEM
[8] = tested on: COLO 205
[9] = tested on: DU-145
[10] = tested on: EKVX
[11] = tested on: HCT-116
[12] = tested on: HCT-15
[13] = tested on: HL-60
[14] = tested on: HOP-62
[15] = tested on: HOP-92
[16] = tested on: HT-29
[17] = tested on: Hs-578T
[18] = tested on: IGROV-1
[19] = tested on: K562
[20] = tested on: KM12
[21] = tested on: LOX IMVI
[22] = tested on: M14
[23] = tested on: MCF7
[24] = tested on: MDA-MB-231
[25] = tested on: MDA-MB-435
[26] = tested on: MDA-N
[27] = tested on: MOLT-4
[28] = tested on: Malme-3M
[29] = tested on: NCI-H226
[30] = tested on: NCI-H23
[31] = tested on: NCI-H460
[32] = tested on: NCI-H522
[33] = tested on: NCI/ADR-RES
[34] = tested on: OVCAR-3
[35] = tested on: OVCAR-4
[36] = tested on: OVCAR-5
[37] = tested on: OVCAR-8
[38] = tested on: PC-3
[39] = tested on: RPMI-8226
[40] = tested on: RXF 393
[41] = tested on: SF-268
[42] = tested on: SF-295
[43] = tested on: SF-539
[44] = tested on: SK-MEL-28
[45] = tested on: SK-MEL-2
[46] = tested on: SK-MEL-5
[47] = tested on: SK-OV-3
[48] = tested on: SN12C
[49] = tested on: SNB-19
[50] = tested on: SNB-75
[51] = tested on: SR
[52] = tested on: SW-620
[53] = tested on: T47D
[54] = tested on: TK-10
[55] = tested on: U-251
[56] = tested on: UACC-257
[57] = tested on: UACC-62
[58] = tested on: UO-31

CCOC(=O)c1c2c(n(C)c1-c1ccccc1)C(=O)C(C)=CC2=O
GI50 [1]: 15.2 µM (inactive)
GI50 [2]: 18.2 µM (inactive)
GI50 [3]: 12.2 µM (inactive)
GI50 [4]: 7.28 µM (inactive)
GI50 [5]: 13.2 µM (inactive)
GI50 [6]: 13.5 µM (inactive)
GI50 [7]: 2.51 µM (inactive)
GI50 [8]: 1.57 µM (inactive)
GI50 [9]: 17.5 µM (inactive)
GI50 [10]: 5.87 µM (inactive)
GI50 [11]: 3.6 µM (inactive)
GI50 [12]: 3.36 µM
GI50 [13]: 2.94 µM (inactive)
GI50 [14]: 17.3 µM (inactive)
GI50 [15]: 2.07 µM (inactive)
GI50 [16]: 5.79 µM (inactive)
GI50 [17]: 18.4 µM (inactive)
GI50 [18]: 5.46 µM (inactive)
GI50 [19]: 3.44 µM (inactive)
GI50 [20]: 6.04 µM (inactive)
GI50 [21]: 3.48 µM (inactive)
GI50 [22]: 3.66 µM (inactive)
GI50 [23]: 2.37 µM (inactive)
GI50 [24]: 2.08 µM (inactive)
GI50 [25]: 1.91 µM (inactive)
GI50 [26]: 2 µM (inactive)
GI50 [27]: 2.55 µM (inactive)
GI50 [28]: 9.04 µM (inactive)
GI50 [29]: 11 µM (inactive)
GI50 [30]: 11.6 µM (inactive)
GI50 [31]: 20.8 µM (inactive)
GI50 [32]: 1.69 µM (inactive)
GI50 [33]: 7.83 µM (inactive)
GI50 [34]: 2.86 µM (inactive)
GI50 [35]: 7.05 µM (inactive)
GI50 [36]: 6.05 µM (inactive)
GI50 [37]: 5.7 µM (inactive)
GI50 [38]: 11.4 µM (inactive)
GI50 [39]: 1.9 µM (inactive)
GI50 [40]: 8.97 µM (inactive)
GI50 [41]: 8.11 µM (inactive)
GI50 [42]: 19 µM (inactive)
GI50 [43]: 4.05 µM (inactive)
GI50 [44]: 13.9 µM (inactive)
GI50 [45]: 13.6 µM (inactive)
GI50 [46]: 9.62 µM (inactive)
GI50 [47]: 16.7 µM (inactive)
GI50 [48]: 7.69 µM (inactive)
GI50 [49]: 13.5 µM (inactive)
GI50 [50]: 14.9 µM (inactive)
GI50 [51]: 1.91 µM (inactive)
GI50 [52]: 4.06 µM (inactive)
GI50 [53]: 3.13 µM (inactive)
GI50 [54]: 8.43 µM (inactive)
GI50 [55]: 7.8 µM (inactive)
GI50 [56]: 2.61 µM (inactive)
GI50 [57]: 10.9 µM (inactive)
GI50 [58]: 12.2 µM (inactive)
